For data set [1] the following is noted: 298.15 K; 101.33 kPa; Liquid; Vibrating tube method.
Data set [2] in a line: refractive index (Na D-line) (dimensionless). The note with it: 298.15 K; 101.33 kPa; Liquid; Standard Abbe refractometry.
Data set [3] is described as follows: xn = mol fraction of the nth substance listed. As to conditions: 298.15 K, 101 kPa, Liquid, Vibrating tube method.

Values joined by “and” are separate entries in the source; they are usually repeats but may differ in a detail not shown here. Equal entries are not always repeated. ± gives the expanded uncertainty stated by the source.

As to `C1CCCCC1` [cyclohexane], the mass density in data set [1] was 773.8 ± 0.13 kg/m3. Besides, the refractive index in data set [2] amounted to 1.4236 ± 0.00031.

Take `CCOS(=O)(=O)[O-].CCn1cc[n+](C)c1` [1-ethyl-3-methylimidazolium ethyl sulfate] + CC1CCCCC1: in data set [3] (x2 = 0.026), the mass density amounted to 1232.26 ± 0.42 kg/m3.

As to `CCOS(=O)(=O)[O-].CCn1cc[n+](C)c1` [1-ethyl-3-methylimidazolium ethyl sulfate], in data set [1], the mass density amounted to 1237.23 ± 0.43 kg/m3. The refractive index in data set [2] is 1.4791 ± 0.00037.

Take `CCOS(=O)(=O)[O-].CCn1cc[n+](C)c1` [1-ethyl-3-methylimidazolium ethyl sulfate] + C1CCCCC1: the mass density in data set [3] (x2 = 0.027) is 1230.94 ± 0.41 kg/m3.

With `CCOS(=O)(=O)[O-].CCn1cc[n+](C)c1` [1-ethyl-3-methylimidazolium ethyl sulfate] + CCc1ccccc1, the mass density in data set [3] (x2 = 0.124) is 1210.43 ± 0.35 kg/m3 and 1210.4 ± 0.35 kg/m3.

For `CC1CCCCC1` [methylcyclohexane], the mass density in data set [1] is on record as 765.02 ± 0.13 kg/m3. Further, in data set [2], the refractive index is 1.42062 ± 0.00031.

`C1CCCCCCC1` [cyclooctane] + CCOS(=O)(=O)[O-].CCn1cc[n+](C)c1: the mass density in data set [3] (x1 = 0.012) was found to be 1232.65 ± 0.42 kg/m3.

Regarding `C1CCCCCCC1` [cyclooctane], the mass density in data set [1] stood at 831.47 ± 0.24 kg/m3. The refractive index in data set [2] turned out to be 1.45598 ± 0.00037.

On to `CCc1ccccc1` [ethylbenzene], for which the mass density in data set [1] stood at 862.51 ± 0.11 kg/m3. The refractive index in data set [2] is recorded as 1.49304 ± 0.00031.

A word on the mass density: it is mass per unit of volume. As a reminder, the refractive index is a measure of how strongly the sample bends light.

These data come from the NIST ThermoML archive (doi:10.1016/j.jct.2010.12.014).
